The text below walks through data of patent US11076595B2, “1-(n,n-disubstituted carbamoyl) 4-(substituted sulfonyl)triazolin-5-one derivative, 4-(n,n-disubstituted carbamoyl) 1-(substituted sulfonyl)triazolin-5-one derivative, and herbicide containing said derivative as active ingredient” (HOKKO CHEMICAL INDUSTRY CO., LTD., priority 2017, dated 2021).

Holding throughout (type): in vivo
Test [1] deals with Echinochloa crus-galli. The test is described as follows: Test Example 11: herbicidal effect test by soil treatment in paddy field. Particulars: 120 g/10a active ingredient, 14 days after treatment. The method in brief: (§1)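 Seeds were sown 0-1 cm deep in puddled, fertilised paddy soil in Wagner pots and kept under about 3 cm of flooding in a greenhouse. Diluted emulsifiable concentrate was added dropwise right after sowing at 120 g a.i. per 10 are. Suppression (%) came from dry weight versus untreated pots after 14 days, two replicates.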

For test [2], the system named is Lindernia pyxidaria. Described as above. As to conditions: 120 g/10a active ingredient, 14 days after treatment. The method in brief: as §1
The test system of test [3] is Monochoria vaginalis. Described as above. Particulars: 120 g/10a active ingredient, 14 days after treatment. Put shortly: as §1
The subject of test [4] is Scirpus juncoides. Described as above. Particulars: 120 g/10a active ingredient, 14 days after treatment. The method in brief: as §1
Test [5] relates to Echinochloa crus-galli. The test is described as follows: Test Example 12: herbicidal effect test by treatment during growing period in paddy field. As to conditions: 120 g/10a; treatment seven days after sowing in flooded paddy pot; assessed 14 days after treatment. Here is the method: (§2) This test was performed with two replications per one formulation concentration plot, and 14 days after the formulation treatments, the weed suppression rate (%) was determined according to the following equation (Math. 2). Weed suppression rate (%)=(1−average dry weight (g) of plants in treated plots/average dry weight (g) of plants in untreated plots)×100 [Math. 2]
(§3) A Wagner pot having an area of 1/10000 are was filled with paddy field soil and after adding water, a chemical fertilizer (N:P:K=17:17:17) was mixed, followed by puddling. Thereafter, 30 grains of each of Echinochloa crus-galli, broad-leaved weed (Lindernia pyxidaria, Monochoria vaginalis) and Scirpus juncoides seeds were sown to a depth of 0 to 1 cm. Immediately after the sowing, the pot was flooded, and the depth of water was kept at about 3 cm. The pot was subsequently managed in a glass greenhouse. Seven Days after sowing, an emulsifiable concentrate prepared according to Formulation Example 15 by using the compound shown in Table 10 below was diluted with water, and a predetermined amount of the water-diluted formulation was added dropwise. The application rate of the active ingredient, by conversion, corresponded to 120 g per 10 are. The test was performed with two replications per one formulation concentration plot, and 14 days after the formulation treatments, the weed suppression rate (%) was determined according to the equation (Math. 2).

Test [6] relates to Lindernia pyxidaria. The test is described as above. Particulars: 120 g/10a; treatment seven days after sowing in flooded paddy pot; assessed 14 days after treatment. Here is the method:
as §2, §3

Test [7] relates to Monochoria vaginalis. The description is as above. Particulars: 120 g/10a; treatment seven days after sowing in flooded paddy pot; assessed 14 days after treatment. The method, then:
as §2, §3

Test [8] has as its system Scirpus juncoides. Described as above. As to conditions: 120 g/10a; treatment seven days after sowing in flooded paddy pot; assessed 14 days after treatment. Here is the method:
as §2, §3

As to `Cc1ccc(N(C(=O)n2cnn(S(=O)(=O)c3cccc(C(F)(F)F)c3)c2=O)C(C)C)c(F)c1` [Compound 11-737], the “Weed suppression rate (%) Echinochloa crus-galli” value in the test with Echinochloa crus-galli [1] and with Echinochloa crus-galli [5] was 90% each time. Besides, the “Weed suppression rate (%) Lindemia pyxidaria” value in the test on Lindernia pyxidaria [2] and in the test with Lindernia pyxidaria [6] was 80% in each case. For the same compound, the “Weed suppression rate (%) Monochoria vaginalis” value with Monochoria vaginalis [3] and in the test with Monochoria vaginalis [7] was 80% in each case. For the same compound, the “Weed suppression rate (%) Scirpus juncoides” value in the test on Scirpus juncoides [4] and in the test on Scirpus juncoides [8] was 90% each time.

With `CC(C)N(C(=O)n1cnn(S(=O)(=O)c2ccc(Cl)cc2)c1=O)c1cccc(F)c1F` [Compound 11-587], the “Weed suppression rate (%) Echinochloa crus-galli” value with Echinochloa crus-galli [1] and in the test with Echinochloa crus-galli [5] was 90% throughout. In addition, the “Weed suppression rate (%) Lindemia pyxidaria” value in the test on Lindernia pyxidaria [2] and with Lindernia pyxidaria [6] was 80% in each case. Besides, the “Weed suppression rate (%) Monochoria vaginalis” value stood at 60% in the test with Monochoria vaginalis [3] and 90% with Monochoria vaginalis [7]. Further, the “Weed suppression rate (%) Scirpus juncoides” value is on record as 60% in the test with Scirpus juncoides [4] and 90% with Scirpus juncoides [8].

For the compound `Cc1ccc(S(=O)(=O)n2ncn(C(=O)N(c3c(F)c(F)cc(F)c3F)C(C)C)c2=O)cc1` [Compound 11-642], the “Weed suppression rate (%) Echinochloa crus-galli” value in the test on Echinochloa crus-galli [1] and in the test on Echinochloa crus-galli [5] was 100% each time. The “Weed suppression rate (%) Lindemia pyxidaria” value turned out to be 80% in the test with Lindernia pyxidaria [2] and 70% in the test with Lindernia pyxidaria [6]. In addition, the “Weed suppression rate (%) Monochoria vaginalis” value in the test with Monochoria vaginalis [3] worked out at 70%; with Monochoria vaginalis [7], 90%. Moreover, the “Weed suppression rate (%) Scirpus juncoides” value with Scirpus juncoides [4] is 70%; in the test with Scirpus juncoides [8] it was 100%.

As for `CC(C)N(C(=O)n1cnn(S(=O)(=O)C2CC2)c1=O)c1ccc(C(F)(F)F)cc1Cl` [Compound 11-220], the “Weed suppression rate (%) Echinochloa crus-galli” value is 100% with Echinochloa crus-galli [1] and 90% with Echinochloa crus-galli [5]. Besides, the “Weed suppression rate (%) Lindemia pyxidaria” value in the test on Lindernia pyxidaria [2] and in the test on Lindernia pyxidaria [6] was 90% each time. The “Weed suppression rate (%) Monochoria vaginalis” value with Monochoria vaginalis [3] is recorded as 60%; with Monochoria vaginalis [7], 90%. Moreover, the “Weed suppression rate (%) Scirpus juncoides” value in the test with Scirpus juncoides [4] was found to be 90%; with Scirpus juncoides [8] it was 80%.

For the compound `Cc1ccc(S(=O)(=O)n2ncn(C(=O)N(c3ccc(F)c(F)c3F)C(C)C)c2=O)cc1` [Compound 11-640], the “Weed suppression rate (%) Echinochloa crus-galli” value in the test on Echinochloa crus-galli [1] is recorded as 100%; in the test on Echinochloa crus-galli [5], 80%. For the same compound, the “Weed suppression rate (%) Lindemia pyxidaria” value is on record as 100% in the test with Lindernia pyxidaria [2] and 70% in the test on Lindernia pyxidaria [6]. Besides, the “Weed suppression rate (%) Monochoria vaginalis” value is 70% with Monochoria vaginalis [3] and 100% in the test on Monochoria vaginalis [7]. The “Weed suppression rate (%) Scirpus juncoides” value with Scirpus juncoides [4] and in the test with Scirpus juncoides [8] was 90% throughout.

With `CC(C)N(C(=O)n1cnn(S(=O)(=O)c2ccc(C(C)(C)C)cc2)c1=O)c1ccc(F)c(F)c1F` [Compound 11-685], the figures for the “Weed suppression rate (%) Echinochloa crus-galli” value in the test with Echinochloa crus-galli [1] and in the test with Echinochloa crus-galli [5] were 90% and 80%, respectively. Besides, the “Weed suppression rate (%) Lindemia pyxidaria” value with Lindernia pyxidaria [2] worked out at 100%; in the test on Lindernia pyxidaria [6], 60%. Besides, the “Weed suppression rate (%) Monochoria vaginalis” value in the test on Monochoria vaginalis [3] is 100%; in the test with Monochoria vaginalis [7] it was 70%. Also, the “Weed suppression rate (%) Scirpus juncoides” value in the test on Scirpus juncoides [4] and in the test on Scirpus juncoides [8] was 60% each time.

`CC(C)N(C(=O)n1cnn(S(=O)(=O)c2cccc(F)c2)c1=O)c1ccc(F)c(F)c1F` [Compound 11-441]: the “Weed suppression rate (%) Echinochloa crus-galli” value in the test on Echinochloa crus-galli [1] and with Echinochloa crus-galli [5] was 100% throughout. Further, the “Weed suppression rate (%) Lindemia pyxidaria” value with Lindernia pyxidaria [2] was found to be 90%; in the test with Lindernia pyxidaria [6], 60%. The “Weed suppression rate (%) Monochoria vaginalis” value is given as 60% with Monochoria vaginalis [3] and 80% in the test with Monochoria vaginalis [7]. For the same compound, the “Weed suppression rate (%) Scirpus juncoides” value in the test with Scirpus juncoides [4] and with Scirpus juncoides [8] was 100% throughout.
